From patent US20240158446A1, “CYCLIC COMPOUND HAVING SELECTIVE INHIBITORY ACTION ON KRAS OVER HRAS AND NRAS” (CHUGAI SEIYAKU KABUSHIKI KAISHA, priority 2021, published 2024)

What was measured:
[1] = biological target: GDP-bound NRAS wild-type protein (Homo sapiens, UniProt P01111); experiment: Binding to NRAS by surface plasmon resonance (SPR), Single Cycle Kinetics; details: for NRAS/KRAS (ratio of KD value for NRAS to KD value for KRAS) / NRAS/KRAS (ratio of KD value with respect to NRAS to KD value with respect to KRAS): SPR, GDP-bound NRAS wild-type protein vs GDP-bound KRAS wild-type protein
[2] = biological target: GDP-bound HRAS wild-type protein (Homo sapiens, UniProt P01112); experiment: Binding to HRAS by surface plasmon resonance (SPR), Single Cycle Kinetics; details: for HRAS/KRAS (ratio of KD value for HRAS to KD value for KRAS) / HRAS/KRAS (ratio of KD value with respect to HRAS to KD value with respect to KRAS): SPR, GDP-bound HRAS wild-type protein vs GDP-bound KRAS wild-type protein
GDP-bound HRAS wild-type protein, sequence (P01112 whole entry): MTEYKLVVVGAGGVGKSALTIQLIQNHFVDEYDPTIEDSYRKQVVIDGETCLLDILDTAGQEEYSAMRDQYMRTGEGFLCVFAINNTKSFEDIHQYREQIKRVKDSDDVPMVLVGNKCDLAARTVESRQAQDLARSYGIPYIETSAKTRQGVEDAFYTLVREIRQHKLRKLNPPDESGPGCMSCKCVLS

GDP-bound NRAS wild-type protein, sequence (P01111 whole entry): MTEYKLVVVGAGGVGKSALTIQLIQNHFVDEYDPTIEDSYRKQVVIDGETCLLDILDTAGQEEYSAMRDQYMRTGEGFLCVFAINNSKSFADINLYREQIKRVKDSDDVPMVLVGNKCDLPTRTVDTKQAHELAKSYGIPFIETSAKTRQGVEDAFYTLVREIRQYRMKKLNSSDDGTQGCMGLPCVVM

CCC[C@H]1C(=O)N[C@@H]([C@@H](C)CC)C(=O)N(C2CC2)CC(=O)N(C)[C@H]2C/C=C\CCN(C2=O)[C@@H](Cc2ccc(C)cc2)C(=O)N(C)CC(=O)N[C@@H](CCc2ccc(C(F)(F)F)c(OC)c2)C(=O)N2C[C@H](OCC)C[C@H]2C(=O)NC2(CC(C)(C)C2)C(=O)N(C)[C@@H](C2CCCC2)C(=O)N(C)[C@H](C(=O)N(C)C)CC(=O)N1C [PP2097]
NRAS/KRAS (ratio of KD value for NRAS to KD value for KRAS) [1]: A (a compound having 10 or more and less than 20 is denoted as A) | HRAS/KRAS (ratio of KD value for HRAS to KD value for KRAS) [2]: A (a compound having 10 or more and less than 20 is denoted as A)

CCO[C@@H]1C[C@H]2C(=O)NC3(CCC3)C(=O)N(C)[C@@H](C3CCCC3)C(=O)N(CC)[C@H](C(=O)N3CCOCC3)CC(=O)N(C)[C@@H](CCC(Cl)Cl)C(=O)N[C@@H]([C@@H](C)CC)C(=O)N(C)CC(=O)N(C)[C@H]3CCCCCN(C3=O)[C@@H](Cc3ccc(C(F)(F)F)cc3)C(=O)N(C)CC(=O)N[C@@H](CCc3cc(F)c(C(F)(F)F)c(F)c3)C(=O)N2C1 [PP0949]
NRAS/KRAS (ratio of KD value for NRAS to KD value for KRAS) [1]: A (a compound having 10 or more and less than 20 is denoted as A) | HRAS/KRAS (ratio of KD value for HRAS to KD value for KRAS) [2]: A (a compound having 10 or more and less than 20 is denoted as A)

CC[C@H](C)[C@@H]1NC(=O)[C@H](CC(C)C)N(C)C(=O)C[C@@H](C(=O)N2CCOCC2)N(C)C(=O)[C@H](C2CCCC2)N(C)C(=O)C2(CCC2)NC(=O)[C@@H]2[C@@H](OCCC(F)(F)F)CCN2C(=O)[C@H](CCc2cc(F)c(C(F)(F)F)c(F)c2)NC(=O)CN(C)C(=O)[C@H](Cc2ccc(C(F)(F)F)cc2)N2CCCCC[C@@H](C2=O)N(C)C(=O)CN(C)C1=O [PP1008]
NRAS/KRAS (ratio of KD value for NRAS to KD value for KRAS) [1]: A (a compound having 10 or more and less than 20 is denoted as A) | HRAS/KRAS (ratio of KD value for HRAS to KD value for KRAS) [2]: B (a compound having 3 or more and less than 10 is denoted as B)

CCO[C@@H]1C[C@H]2C(=O)NC3(CCC3)C(=O)N(C)[C@@H](C3CCCC3)C(=O)N(C)[C@H](C(=O)N(C)C)CC(=O)N(C)[C@@H](CC(C)C)C(=O)N[C@@H]([C@@H](C)CC)C(=O)N(C)CC(=O)N(C)[C@H]3CCCCCN(C3=O)[C@@H](Cc3ccc(F)cc3)C(=O)N(C)CC(=O)N[C@@H](CCc3ccc(C(F)(F)F)c(Cl)c3)C(=O)N2C1 [PP0972]
NRAS/KRAS (ratio of KD value for NRAS to KD value for KRAS) [1]: B (a compound having 3 or more and less than 10 is denoted as B) | HRAS/KRAS (ratio of KD value for HRAS to KD value for KRAS) [2]: B (a compound having 3 or more and less than 10 is denoted as B)

CCC[C@H]1C(=O)N[C@@H]([C@@H](C)CC)C(=O)N(C)CC(=O)N(C)[C@H]2C/C=C\CCN(C2=O)[C@@H](Cc2ccc(C(F)(F)F)cc2)C(=O)N(C)CC(=O)N[C@@H](CCc2cc(F)c(CC)c(OC)c2)C(=O)N2C[C@H](OCC)C[C@H]2C(=O)NC2(CC(C)(C)C2)C(=O)N(C)[C@@H](C2CCCC2)C(=O)N(C)[C@H](C(=O)N(C)C)CC(=O)N1C [PP2862]
NRAS/KRAS (ratio of KD value with respect to GDP-bound NRAS wild-type protein to KD value with respect to KRAS) ([1]; SPR KD ratio NRAS/KRAS, class symbols): A (a compound having 10 or more and less than 20 is denoted as A) | HRAS/KRAS (ratio of KD value with respect to GDP-bound HRAS wild-type protein to KD value with respect to KRAS) ([2]; SPR KD ratio HRAS/KRAS, class symbols): B (a compound having 3 or more and less than 10 is denoted as B)

CCO[C@@H]1C[C@H]2C(=O)NC3(CC(C)(C)C3)C(=O)N(C)[C@@H](C(CC)CC)C(=O)N(C)[C@H](C(=O)N3CCCC3)CC(=O)N(C)[C@@H](COC)C(=O)N[C@@H]([C@@H](C)CC)C(=O)N(C)CC(=O)N(C)[C@H]3C/C=C\CCN(C3=O)[C@@H](Cc3ccc(C)cc3)C(=O)N(C)CC(=O)N[C@@H](CCc3cc(F)c(C(F)(F)F)c(F)c3)C(=O)N2C1 [PP2139]
NRAS/KRAS (ratio of KD value for NRAS to KD value for KRAS) [1]: AA (a compound having 20 or more is denoted as AA) | HRAS/KRAS (ratio of KD value for HRAS to KD value for KRAS) [2]: A (a compound having 10 or more and less than 20 is denoted as A)

CCC[C@H]1C(=O)N[C@@H]([C@@H](C)CC)C(=O)N(C)CC(=O)N(C)[C@H]2C/C=C\CCN(C2=O)[C@@H](Cc2ccc(C)cc2)C(=O)N(C)CC(=O)N[C@@H](CCc2cc(F)c(C(F)(F)F)c(F)c2)C(=O)N2C[C@H](CC)C[C@H]2C(=O)NC2(CCCC2)C(=O)N(C)[C@@H](C2CCCC2)C(=O)N(C)[C@H](C(=O)N(C)C)CC(=O)N1C [PP2216]
NRAS/KRAS (ratio of KD value for NRAS to KD value for KRAS) [1]: A (a compound having 10 or more and less than 20 is denoted as A) | HRAS/KRAS (ratio of KD value for HRAS to KD value for KRAS) [2]: A (a compound having 10 or more and less than 20 is denoted as A)

CCO[C@@H]1C[C@H]2C(=O)NC3(CCC3)C(=O)N(C)[C@@H](C3CCCC3)C(=O)N(C)[C@H](C(=O)N3CCOCC3)CC(=O)N(C)[C@@H](CC(C)(C)C)C(=O)N[C@@H]([C@@H](C)CC)C(=O)N(C)CC(=O)N(C)[C@H]3CCCCCN(C3=O)[C@@H](Cc3ccc(C(F)(F)F)cc3)C(=O)N(C)CC(=O)N[C@@H](CCc3cc(F)c(C(F)(F)F)c(F)c3)C(=O)N2C1 [PP0684]
NRAS/KRAS (ratio of KD value with respect to NRAS to KD value with respect to KRAS) [1]: B (a compound having 3 or more and less than 10 is denoted as B) | HRAS/KRAS (ratio of KD value with respect to HRAS to KD value with respect to KRAS) [2]: B (a compound having 3 or more and less than 10 is denoted as B)

CC[C@H](C)[C@@H]1NC(=O)[C@H](CC(C)C)N(C)C(=O)C[C@@H](C(=O)N(C)C)N(C)C(=O)[C@H](C2CCCC2)N(C)C(=O)C2(CCCC2)NC(=O)[C@@H]2CCCN2C(=O)[C@H](CCc2ccc(C(F)(F)F)c(Cl)c2)NC(=O)CN(C)C(=O)[C@H](Cc2ccc(F)cc2)N2CCCCC[C@@H](C2=O)N(C)C(=O)CN(C)C1=O [PP0971]
NRAS/KRAS (ratio of KD value for NRAS to KD value for KRAS) [1]: B (a compound having 3 or more and less than 10 is denoted as B) | HRAS/KRAS (ratio of KD value for HRAS to KD value for KRAS) [2]: B (a compound having 3 or more and less than 10 is denoted as B)

CCO[C@@H]1C[C@H]2C(=O)NC3(CCC3)C(=O)N(C)[C@@H](C3CCCC3)C(=O)N(C)[C@H](C(=O)N3CCOCC3)CC(=O)N(C)[C@@H](CC(C)C)C(=O)N[C@@H]([C@@H](C)CC)C(=O)N(C)CC(=O)N(C)[C@H]3CC(C)=CCN(C3=O)[C@@H](Cc3ccc(C(F)(F)F)cc3)C(=O)N(C)CC(=O)N[C@@H](CCc3cc(F)c(C(F)(F)F)c(F)c3)C(=O)N2C1 [PP1039]
NRAS/KRAS (ratio of KD value for NRAS to KD value for KRAS) [1]: C (A compound having a KD ratio of 0.1 or more and less than 3 is denoted as C) | HRAS/KRAS (ratio of KD value for HRAS to KD value for KRAS) [2]: C (A compound having a KD ratio of 0.1 or more and less than 3 is denoted as C)

CCCOC[C@H]1C(=O)N[C@@H]([C@@H](C)CC)C(=O)N(C)CC(=O)N(C)[C@H]2C/C=C\CCN(C2=O)[C@@H](Cc2ccc(C)cc2)C(=O)N(C)CC(=O)N[C@@H](CCc2ccc(C(F)(F)F)c(OC)c2)C(=O)N2C[C@H](OCC)C[C@H]2C(=O)N(C)C2(CCC2)C(=O)N(C)[C@@H](C2CCCC2)C(=O)N(C)[C@H](C(=O)N(C)C)CC(=O)N1C [PP2326]
NRAS/KRAS (ratio of KD value for NRAS to KD value for KRAS) [1]: A (a compound having 10 or more and less than 20 is denoted as A) | HRAS/KRAS (ratio of KD value for HRAS to KD value for KRAS) [2]: B (a compound having 3 or more and less than 10 is denoted as B)

CCO[C@@H]1C[C@H]2C(=O)NC3(CCC3)C(=O)N(C)[C@@H](C3CCCC3)C(=O)N(C)[C@H](C)CC(=O)N(C)[C@@H](CC3CC3)C(=O)N[C@@H]([C@@H](C)CC)C(=O)N(C)CC(=O)N(C)[C@H]3C/C=C\CCN(C3=O)[C@@H](Cc3ccc(F)cc3C)C(=O)N(C)CC(=O)N[C@@H](CCc3cc(F)c(C(F)(F)F)c(F)c3)C(=O)N2C1 [PP1489]
NRAS/KRAS (ratio of KD value for NRAS to KD value for KRAS) ([1]; KD ratio class): B (a compound having 3 or more and less than 10 is denoted as B) | HRAS/KRAS (ratio of KD value for HRAS to KD value for KRAS) ([2]; KD ratio class): B (a compound having 3 or more and less than 10 is denoted as B)

CCO[C@@H]1C[C@H]2C(=O)NC3(CCC3)C(=O)N(C)[C@@H](C3CCCC3)C(=O)N(C)[C@H](C)CC(=O)N(C)[C@@H](CC(C)C)C(=O)N[C@@H]([C@@H](C)CC)C(=O)N(C)CC(=O)N(C)[C@H]3C/C=C\CCN(C3=O)[C@@H](Cc3ccc(F)cc3C)C(=O)N(C)CC(=O)N[C@@H](CCc3cc(F)c(C(F)(F)F)c(F)c3)C(=O)N2C1 [PP1493]
NRAS/KRAS (ratio of KD value for NRAS to KD value for KRAS) ([1]; KD ratio class): B (a compound having 3 or more and less than 10 is denoted as B) | HRAS/KRAS (ratio of KD value for HRAS to KD value for KRAS) ([2]; KD ratio class): B (a compound having 3 or more and less than 10 is denoted as B)

CCO[C@@H]1C[C@H]2C(=O)NC3(CCC3)C(=O)N(C)[C@@H](C3CCCC3)C(=O)N(C)[C@H](C(=O)N(C)CC)CC(=O)N(C)[C@H]3CCCCCc4ccc(cc4)C[C@@H](C(=O)N(C)CC(=O)N[C@@H](CCc4cc(F)c(C(F)(F)F)c(F)c4)C(=O)N2C1)N1CC/C=C\C[C@@H](C1=O)N(C)C(=O)CN(C)C(=O)[C@H]([C@@H](C)CC)NC3=O (stereo in doubt) [PP2117]
NRAS/KRAS (ratio of KD value for NRAS to KD value for KRAS) [1]: A (a compound having 10 or more and less than 20 is denoted as A) | HRAS/KRAS (ratio of KD value for HRAS to KD value for KRAS) [2]: A (a compound having 10 or more and less than 20 is denoted as A)

CC[C@H](C)[C@@H]1NC(=O)[C@H](CC(C)C)N(C)C(=O)C[C@@H](C(=O)N2C3CCC2COC3)N(C)C(=O)[C@H](C2CCCC2)N(C)C(=O)C2(CCCC2)NC(=O)[C@@H]2CCCN2C(=O)[C@H](CCc2cc(F)c(C(F)(F)F)c(F)c2)NC(=O)CN(C)C(=O)[C@H](Cc2ccc(C(F)(F)F)cc2)N2CCCC[C@@H](C2=O)N(C)C(=O)CN(C)C1=O [PP0573]
NRAS/KRAS (ratio of KD value with respect to NRAS to KD value with respect to KRAS) [1]: B (a compound having 3 or more and less than 10 is denoted as B) | HRAS/KRAS (ratio of KD value with respect to HRAS to KD value with respect to KRAS) [2]: B (a compound having 3 or more and less than 10 is denoted as B)
